Laboratory results from patent US8263606B2 (Xenon Pharmaceuticals Inc., priority 2008, dated 2012).

Legend:
CYP3A4 = CYP3A4 (Homo sapiens, UniProt P08684); assay: Cytochrome P450 (CYP450) Inhibition Assay, CYP3A4 (Vivid fluorescence, BOMCC substrate); settings: human, P450 Baculosomes (recombinant CYP3A4), probe BOMCC (Vivid substrate)
sodium channel = assay: Guanidine influx assay (14C-guanidine radiotracer flux, in vitro); format: cell-based, human or rat; settings: guanidine influx assay using a known cell line that expresses a sodium channel
In short: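 Aconitine holds channels open while 14C-guanidine enters human or rat sodium-channel-expressing cells in choline-substituted low-sodium saline, with test agent present at ambient temperature. Retained tracer is scintillation-counted and IC50 fitted by a four-parameter logistic model.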

Chain of CYP3A4 (P08684 whole entry): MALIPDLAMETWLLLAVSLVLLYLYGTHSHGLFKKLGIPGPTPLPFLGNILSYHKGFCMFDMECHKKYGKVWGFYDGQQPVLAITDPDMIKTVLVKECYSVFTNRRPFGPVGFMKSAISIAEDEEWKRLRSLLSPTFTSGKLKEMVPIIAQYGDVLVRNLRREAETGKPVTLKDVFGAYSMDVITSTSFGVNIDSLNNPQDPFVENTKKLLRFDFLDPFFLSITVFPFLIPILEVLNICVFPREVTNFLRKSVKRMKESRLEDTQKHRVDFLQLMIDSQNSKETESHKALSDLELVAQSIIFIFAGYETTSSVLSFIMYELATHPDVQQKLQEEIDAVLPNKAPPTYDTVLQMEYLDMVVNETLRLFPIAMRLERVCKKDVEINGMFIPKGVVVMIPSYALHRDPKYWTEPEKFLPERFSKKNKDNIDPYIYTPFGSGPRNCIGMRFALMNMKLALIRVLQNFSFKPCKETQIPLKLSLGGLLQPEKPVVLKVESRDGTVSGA

Row | SMILES | inhibition at 10 µM (CYP3A4) | IC50 (sodium channel) | melting point | IC50 (sodium channel; activity level class)
1 | C[C@@H](CN1C(=O)C2(COc3cc4c(cc32)CCO4)c2ccccc21)OCc1ccccn1 (stereo partly drawn) [Example 14.3, 1′-[(2S)-2-(pyridin-2-ylmethoxy)propyl]-5,6-dihydrospiro[benzo[1,2-b:5,4-b′]difuran-3,3′-indol]-2′(1′H)-one] | > 50% | 1 to 10 µM | 46 to 54 °C | 
2 | O=C(O)c1ccc(CN2C(=O)C3(COc4cc5c(cc43)OCCO5)c3ccccc32)cc1 (stereo not drawn) [Example 11.87, 4-[(2′-oxo-2,3-dihydrospiro[furo[2,3-g][1,4]benzodioxine-8,3′-indol]-1′(2′H)-yl)methyl]benzoic acid] | < 50% | 1 to 10 µM | 234 to 237 °C | 
3 | Cc1cccc(CN2C(=O)C3(COc4cc5c(cc43)OCCO5)c3ccccc32)n1 (stereo not drawn) [Example 1.1, 1′-[(6-methylpyridin-2-yl)methyl]-2,3-dihydrospiro[furo[2,3-g][1,4]benzodioxine-8,3′-indol]-2′(1′H)-one] | > 50% |  | 183 to 185 °C | 0.001 to 0.1 µM
4 | CCCCNC(=O)c1ccccc1CN1C(=O)C2(COc3cc4c(cc32)CCO4)c2ccccc21 (stereo not drawn) [Example 12.18, N-butyl-2-[(2′-oxo-5,6-dihydrospiro[benzo[1,2-b:5,4-b′]difuran-3,3′-indol]-1′(2′H)-yl)methyl]benzamide] | > 50% | 1 to 10 µM | 176 to 178 °C | 
5 | O=C1N(Cc2ncccn2)c2ccccc2C12COc1cc3c(cc12)OCCO3 (stereo not drawn) [Example 5.32, 1′-(pyrimidin-2-ylmethyl)-2,3-dihydrospiro[furo[2,3-g][1,4]-benzodioxine-8,3′-indol]-2′(1′H)-one] | < 50% |  | 278 to 279 °C | 0.001 to 0.1 µM
6 | O=C1N(Cc2cccnn2)c2ccccc2C12COc1cc3c(cc12)CCO3 (stereo not drawn) [Example 9.9, 1′-(pyridazin-3-ylmethyl)-5,6-dihydrospiro[benzo[1,2-b:5,4-b′]difuran-3,3′-indol]-2′(1′H)-one] | < 50% |  | 81 to 82 °C | 0.1 to 1 µM
7 | Cc1noc2cc3c(cc12)C1(CO3)C(=O)N(Cc2cccnc2)c2ccccc21 (stereo not drawn) [Example 9.25, 3-methyl-1′-(pyridin-3-ylmethyl)spiro[furo[3,2-f][1,2]benzisoxazole-5,3′-indol]-2′(1′H)-one] | > 50% |  | 176 to 177 °C | 0.001 to 0.1 µM
8 | O=C1N(Cc2ncccc2F)c2ccccc2[C@]12COc1cc3c(cc12)OCCO3 [Example 4.108, (8S)-1′-[(3-fluoropyridin-2-yl)methyl]-2,3-dihydrospiro[furo[2,3-g][1,4]benzodioxine-8,3′-indol]-2′(1′H)-one] | < 50% |  | 125 to 126 °C | 0.001 to 0.1 µM
9 | C[C@H](O)CN1C(=O)C2(COc3cc4c(cc32)CCO4)c2ccccc21 (stereo partly drawn) [Example 14, 1′-[(2S)-2-hydroxypropyl]-5,6-dihydrospiro[benzo[1,2-b:5,4-b′]difuran-3,3′-indol]-2′(1′H)-one] | < 50% | 0.1 to 1 µM | 171 to 174 °C | 
10 | O=C1N(Cc2ccc(O)cc2)c2ccccc2C12COc1cc3c(cc12)OCCO3 (stereo not drawn) [Example 17.1, 1′-(4-hydroxybenzyl)-2,3-dihydrospiro[furo[2,3-g][1,4]benzodioxine-8,3′-indol]-2′(1′H)-one] | > 50% | 0.001 to 0.1 µM | 243 to 244 °C | 
11 | O=C(NCCCN1C(=O)C2(COc3cc4c(cc32)CCO4)c2ccccc21)c1ccccc1OC(F)(F)F (stereo not drawn) [Example 13.11, N-[3-(2′-oxo-5,6-dihydrospiro[benzo[1,2-b:5,4-b′]difuran-3,3′-indol]-1′(2′H)-yl)propyl]-2-(trifluoromethoxy)benzamide] | > 50% | 0.1 to 1 µM | 65 to 70 °C | 
12 | O=C1N(Cc2ccc(C(F)(F)F)o2)c2ccccc2C12COc1cc(N[C@@H]3CCNC3)ccc12 (stereo partly drawn) [Example 11.52, 6-[(3R)-pyrrolidin-3-ylamino]-1′-{[5-(trifluoromethyl)furan-2-yl]methyl}spiro[1-benzofuran-3,3′-indol]-2′(1′H)-one] | > 50% | 0.1 to 1 µM | 122 to 125 °C | 
13 | COc1ncc(CN2C(=O)C3(COc4cc5c(cc43)OCO5)c3ccccc32)s1 (stereo not drawn) [Example 11.4, 1′-[(2-methoxy-1,3-thiazol-5-yl)methyl]spiro[furo[2,3-f][1,3]benzodioxole-7,3′-indol]-2′(1′H)-one] | > 50% | 0.001 to 0.1 µM | 164 to 166 °C | 
14 | Cc1onc(-c2c(Cl)cccc2Cl)c1CN1C(=O)C2(COc3cc4c(cc32)OCO4)c2ccccc21 (stereo not drawn) [Example 6.4, 1′-{[3-(2,6-dichlorophenyl)-5-methylisoxazol-4-yl]methyl}spiro[furo[2,3-f][1,3]benzodioxole-7,3′-indol]-2′(1′H)-one] | > 50% |  | 190 to 192 °C | 1 to 10 µM
15 | O=C1N(Cc2ccc(OCc3ccccc3)cc2)c2ccccc2C12COc1cc3c(cc12)OCCO3 (stereo not drawn) [Example 9.37, 1′-[4-(benzyloxy)benzyl]-2,3-dihydrospiro[furo[2,3-g][1,4]benzodioxine-8,3′-indol]-2′(1′H)-one] | < 50% |  | 87 to 89 °C | 0.1 to 1 µM
16 | CN1C(=O)C2(COc3cc4c(cc32)CCO4)c2ccccc21 (stereo not drawn) [Example 11.43, 1′-methyl-5,6-dihydrospiro[benzo[1,2-b:5,4-b′]difuran-3,3′-indol]-2′(1′H)-one] | < 50% | 0.1 to 1 µM | 187 to 190 °C | 
17 | CC(C)N1CCC(CN2C(=O)C3(COc4cc5c(cc43)OCCO5)c3ccccc32)CC1.Cl (stereo not drawn) [Example 11.100, 1′-{[1-(1-methylethyl)piperidin-4-yl]methyl}-2,3-dihydrospiro[furo[2,3-g][1,4]benzodioxine-8,3′-indol]-2′(1′H)-one hydrochloride] | > 50% | 1 to 10 µM | 213 to 216 °C | 
18 | O=C1N(Cc2ccccc2CF)c2ccccc2C12COc1cc3c(cc12)OCCO3 (stereo not drawn) [Example 4.93] | > 50% |  | 188 to 190 °C | 0.001 to 0.1 µM
19 | CN(C)c1ccc(CN2C(=O)C3(COc4cc5c(cc43)OCCO5)c3ccccc32)nc1 (stereo not drawn) [Example 33.4, 1′-{[5-(dimethylamino)pyridin-2-yl]methyl}-2,3-dihydrospiro[furo[2,3-g][1,4]benzodioxine-8,3′-indol]-2′(1′H)-one] | > 50% | 0.001 to 0.1 µM | 229 to 236 °C | 
20 | O=C1N(Cc2ccccn2)c2ccccc2C12COc1cc3nccnc3cc12 (stereo not drawn) [Example 4.130, 1′-(pyridin-2-ylmethyl)spiro[furo[2,3-g]quinoxaline-8,3′-indol]-2′(1′H)-one] | < 50% |  | 232 to 233 °C | 1 to 10 µM
21 | COc1ccc(CN2C(=O)C3(COc4cc5onc(C)c5cc43)c3ccccc32)cc1 (stereo not drawn) [Example 2.6, 1′-(4-methoxybenzyl)-3-methylspiro[furo[3,2-f][1,2]benzisoxazole-5,3′-indol]-2′(1′H)-one] | > 50% |  | 138 to 139 °C | 0.001 to 0.1 µM
22 | O=C1N(Cc2ccc(OCc3ccccc3)cc2)c2ccccc2[C@]12COc1cc3c(cc12)OCCO3 [Example 9.39, (8S)-1′-[4-(Benzyloxy)Benzyl]-2,3-Dihydrospiro[Furo[2,3-g][1,4]Benzodioxine-8,3′-Indol]-2′(1′H)-One] | < 50% |  | 151 to 153 °C | 0.1 to 1 µM
23 | COCCNC(=O)c1ccc(CN2C(=O)C3(COc4cc5c(cc43)CCO5)c3ccccc32)cc1 (stereo not drawn) [Example 12.40, N-(2-methoxyethyl)-4-[(2′-oxo-5,6-dihydrospiro[benzo[1,2-b:5,4-b′]difuran-3,3′-indol]-1′(2′H)-yl)methyl]benzamide] | < 50% | 0.1 to 1 µM | 182 to 183 °C | 
24 | CCCCCCN(C)C(=O)c1cccc(CN2C(=O)C3(COc4cc5c(cc43)CCO5)c3ccccc32)c1 (stereo not drawn) [Example 12.2, N-hexyl-N-methyl-3-[(2′-oxo-5,6-dihydrospiro[benzo[1,2-b:5,4-b′]difuran-3,3′-indol]-1′(2′H)-yl)methyl]benzamide] | > 50% | 0.1 to 1 µM | 73 to 74 °C | 
25 | O=C1Nc2c(Cl)cccc2C12COc1cc3c(cc12)CCO3 (stereo not drawn) [Example 3.15, 7′-chloro-5,6-dihydrospiro[benzo[1,2-b:5,4-b′]difuran-3,3′-indol]-2′(1′H)-one] | < 50% |  | > 250 °C | 0.1 to 1 µM
26 | CC(C)CCN1C(=O)C2(COc3cc4c(cc32)OCCO4)c2c1ccc1ncsc21 (stereo not drawn) [Example 2.24, 6′-isopentyl-3,7-dihydro-2H-spiro[benzofuro[5,6-b][1,4]dioxine-8,8′-thiazolo[5,4-e]indol]-7′(6′H)-one] | > 50% |  | 169 to 171 °C | 0.001 to 0.1 µM
27 | Cn1nc(C(F)(F)F)c(CN2C(=O)C3(COc4cc5c(cc43)OCO5)c3ccccc32)c1Cl (stereo not drawn) [Example 1.16, 1′-{[5-chloro-1-methyl-3-(trifluoromethyl)-1H-pyrazol-4-yl]methyl}spiro[furo[2,3-f][1,3]benzodioxole-7,3′-indol]-2′(1′H)-one] | > 50% |  | 180 to 182 °C | 0.001 to 0.1 µM
28 | Cc1noc2cc3c(cc12)C1(CO3)C(=O)N(Cc2ccc(-c3ccno3)cc2)c2ccccc21 (stereo not drawn) [Example 4.99, 1′-(4-isoxazol-5-ylbenzyl)-3-methylspiro[furo[3,2-f][1,2]benzisoxazole-5,3′-indol]-2′(1′H)-one] | < 50% |  | 192 to 194 °C | 0.1 to 1 µM
